Reference: US7253293B2, “Enzymatic method to produce 7-dehydropregnenolone, vitamin D3-like compounds and derivatives thereof” (priority 2004, dated 2007)

Columns and labels:
Bovine P450scc [1] = molecular target: T1, Bovine P450scc (Bos taurus, UniProt P00189); experiment: Side-chain cleavage kinetics by bovine cytochrome P450scc in phospholipid vesicles; format: biochemical; conditions: for kcat: substrate and P450scc in dioleoylphosphatidylcholine vesicles containing cardiolipin, ±SE
T1 construct: isolated from adrenals; from tissue; host or cells: bovine adrenals
T1 sequence (P00189 40-520): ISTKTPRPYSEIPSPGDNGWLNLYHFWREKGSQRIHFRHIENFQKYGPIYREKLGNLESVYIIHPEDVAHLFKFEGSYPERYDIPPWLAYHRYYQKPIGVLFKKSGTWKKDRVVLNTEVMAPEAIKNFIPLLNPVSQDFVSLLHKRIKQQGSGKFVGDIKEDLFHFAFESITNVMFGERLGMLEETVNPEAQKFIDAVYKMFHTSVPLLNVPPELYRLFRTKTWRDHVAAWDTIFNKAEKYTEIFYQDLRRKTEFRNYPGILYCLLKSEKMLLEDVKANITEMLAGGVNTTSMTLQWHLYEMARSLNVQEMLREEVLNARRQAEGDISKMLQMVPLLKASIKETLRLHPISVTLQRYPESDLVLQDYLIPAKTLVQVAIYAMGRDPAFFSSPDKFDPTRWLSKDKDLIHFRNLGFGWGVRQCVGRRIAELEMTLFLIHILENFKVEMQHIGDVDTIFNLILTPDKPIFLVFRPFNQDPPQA
T1 sequence (P00257 59-186 partner): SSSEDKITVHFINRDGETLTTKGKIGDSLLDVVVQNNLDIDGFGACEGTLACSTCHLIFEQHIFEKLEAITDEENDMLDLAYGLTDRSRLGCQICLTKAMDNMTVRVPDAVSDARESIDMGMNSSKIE
Procedure: (§1) Large-scale reactions (50 mL) to cleave the side chain of 7-DHC were performed with purified bovine P450scc and its electron-transfer system in a manner similar to that described for cholesterol (41). The incubation mixture comprised 510 μM phospholipids vesicles (dioleoylphosphatidylcholine plus 15 mol % cardiolipin) with a substrate to phospholipids molar ration of 0.2 50 μM NADPH, 2 mM glucose 6-phosphate, 2 U-mL^−1 glucose 6-phosphate dehydrogenase, 0.3 μM adrenodoxin reductase, 6.5 μM adrenodoxin, 1.0 μM cytochrome P450scc and buffer, pH 7.4 (41). After incubation at 37° C. for 3 h, the mixture was extracted three times with 50 mL methylene chloride and dried under nitrogen at 35° C. Products were purified by preparative TLC on silica gel G with three developments in hexane/ethyl acetate (3:1 v/v) and products eluted from the silica gel with chloroform/methanol (1:1, v/v). Samples were dried under nitrogen and shipped for analysis on dry ice. Small-scale reactions (0.25 mL) to determine the kinetics of 7-DHC and cholesterol metabolism were performed with either bovine or human cytochrome P450scc as described for cholesterol (41). The amount of 7-DHP produced from 7-DHC was measured by RIA [25] using purified 7-DHP as standard.
Table 2 contains the kinetic parameters for side-cahin cleavage of 7-DHC and cholesterol by bovine and human cytochromes P450scc. Kinetic parameters were determined with substrates and P450scc incorporated into dioleoylphosphatidylcholine (PL) vesicles containing cardiolipin. Values for Kcat and Km are ±SE and are expressed as min^−1 and mol sterol-mol PL^−1, respectively. They were obtained from fitting hyperbolic curves to the kinetic data using KALEIDAGRAPH.

MLN64 and StAR = conditions: reconstituted in vitro system; compared with cholesterol; cited from earlier work
Bovine P450scc [2] = molecular target: T1, Bovine P450scc; conditions: 2-hydroxypropyl-β-cyclodextrin; cited from earlier work
Human P450scc = molecular target: T2, Human P450scc (Homo sapiens, UniProt P05108); experiment: Side-chain cleavage kinetics by human cytochrome P450scc in phospholipid vesicles; format: biochemical; conditions: for kcat: substrate and P450scc in dioleoylphosphatidylcholine vesicles containing cardiolipin, ±SE
T2 construct: made in house; host or cells: Escherichia coli
T2 sequence (P05108 40-521): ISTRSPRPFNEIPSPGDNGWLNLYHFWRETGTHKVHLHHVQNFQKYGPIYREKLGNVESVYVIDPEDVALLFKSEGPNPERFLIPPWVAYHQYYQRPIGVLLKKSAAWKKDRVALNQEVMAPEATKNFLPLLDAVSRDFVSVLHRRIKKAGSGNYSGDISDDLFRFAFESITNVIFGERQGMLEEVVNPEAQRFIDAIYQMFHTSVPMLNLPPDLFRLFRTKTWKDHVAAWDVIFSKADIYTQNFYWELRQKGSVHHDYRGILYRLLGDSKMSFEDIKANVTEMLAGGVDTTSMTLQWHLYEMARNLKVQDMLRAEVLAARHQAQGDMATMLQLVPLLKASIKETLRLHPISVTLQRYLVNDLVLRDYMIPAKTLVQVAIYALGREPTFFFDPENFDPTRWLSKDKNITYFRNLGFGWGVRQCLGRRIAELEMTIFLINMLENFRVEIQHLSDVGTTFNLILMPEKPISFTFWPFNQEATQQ
T2 sequence (P10109 61-184 partner): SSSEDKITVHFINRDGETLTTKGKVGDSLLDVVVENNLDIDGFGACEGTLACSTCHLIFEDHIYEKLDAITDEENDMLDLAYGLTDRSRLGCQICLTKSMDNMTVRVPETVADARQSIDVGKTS
Procedure: as §1
Table 2 contains the kinetic parameters for side-cahin cleavage of 7-DHC and cholesterol by bovine and human cytochromes P450scc. Kinetic parameters were determined with substrates and P450scc incorporated into dioleoylphosphatidylcholine (PL) vesicles containing cardiolipin. Values for Kcat and Km are ±SE and are expressed as min^−1 and mol sterol-mol PL^−1, respectively. They were obtained from fitting hyperbolic curves to the kinetic data using […].

[3] = tested on: mitochondria from skin cells; experiment: Side-chain cleavage of radiolabelled cholesterol by mitochondria isolated from skin cells; format: biochemical; conditions: for conversion relative to that reported for placental mitochondria: cutaneous mitochondria versus literature value for placental mitochondria
Procedure: Mitochondrial fractions of the test tissue, i.e., skin, adrenals or placenta, were prepared by homogenizing the tissue in 5 vols ice-cold 0.25 M sucrose containing protease inhibitor cocktail (Sigma) (38). The homogenate was centrifuged at 600 g for 10 min at 4° C., and the resulting supernatant was centrifuged at 6000 g (placenta) or 9000 g (skin and adrenals) for 20 min at 4° C. to sediment the mitochondrial fraction. The pellet was resuspended in 0.25 M sucrose, and the mitochondrial fraction was again sedimented under the same conditions. The washed mitochondrial fraction was resuspended in 0.25 M sucrose and used for enzymatic reaction. For cultured skin cells, the above procedure was carried out after the cells had been swelled for 30 min in 20 mM HEPES, pH 7.4, before homogenization.
[4-^14C]Cholesterol (58 mCi.mmol^−1; Amersham Bioscience) was purified before its use as a substrate by mitochondria, by TLC on silica gel G plates in hexane/acetone (7:3, v/v). Isolated mitochondria (0.5 mg protein) were then preincubated (15 min at 37° C.) with purified [4-^14C]cholesterol (1 μCi, 34 μM) in 0.5 mL medium comprising 0.25M sucrose, 50 mM HEPES, pH 7.4, 20 mM KCl, 5 mM MgSO4, 0.2 mM EDTA, 0.4 μM adrenodoxin reductase, 6 μM adrenodoxin, 5 μM N-62 StAR protein (gift from W. Miller, University of California, San Francisco, Calif., USA) and 8 μM cyanoketone. The reaction was started by adding NADPH (0.5 mM) and isocitrate (5 mM), and samples were incubated at 37° C. for 150 min. The reaction was stopped by the addition of 1 mL ice-cold methylene chloride, and the incubation mixture extracted twice more with 1 mL methylene chloride. The fractions were combined, dried under nitrogen, and subjected to TLC on silica gel G plates and developed with hexane/acetone (7:3, v/v). Radiolabelled products were visualized using a phosphoimager, the steroids eluted from the plate with chloroform/methanol (1:1, v/v), and the associated radioactivity measured by scintillation counting.

[4] = cutaneous mitochondria, 34 μM substrate, 150 min at 37° C.

Compound: CC(C)CCC[C@@H](C)[C@H]1CC[C@H]2C3=CC=C4C[C@@H](O)CC[C@]4(C)[C@H]3CC[C@]12C [7-DHC, cholesta-5,7-dien-3β-ol]
- kcat (Bovine P450scc [1]): 0.407 ± 0.0183 s⁻¹
- kcat relative to that for cholesterol (Bovine P450scc [1]; substrate dissolved in membrane of phospholipid vesicles): 62%
- efficiency of transport from donor to acceptor vesicles (MLN64 and StAR): efficiency similar to that for cholesterol
- Vmax compared with cholesterol (Bovine P450scc [2]): same Vmax for 7-DHC and cholesterol
- kcat relative to that for cholesterol (Human P450scc): 70%
- kcat (Human P450scc): 0.222 ± 0.0067 s⁻¹

Compound: CC(C)CCC[C@@H](C)[C@H]1CC[C@H]2[C@@H]3CC=C4C[C@@H](O)CC[C@]4(C)[C@H]3CC[C@]12C [Cholesterol, cholesterol]
- kcat (Bovine P450scc [1]): 0.655 ± 0.0283 s⁻¹
- kcat (Human P450scc): 0.317 ± 0.0067 s⁻¹

Compound: CC(C)CCC[C@@H](C)[C@H]1CC[C@H]2[C@@H]3CC=C4[14CH2][C@@H](O)CC[C@]4(C)[C@H]3CC[C@]12C [[4-^14C]cholesterol, [4-^14C]Cholesterol]
- conversion relative to that reported for placental mitochondria [3]: ~1%
- conversion relative to that reported for placental mitochondria ([3]; listed as [4-^14C]-cholesterol): approximately 1%
- rate of conversion into pregnenolone [3, 4]: 0.14%
- rate of conversion into progesterone [3, 4]: 0.04%
